Laboratory results from PMC6115767, “Soybean- and Lupin-Derived Peptides Inhibit DPP-IV Activity on In Situ Human Intestinal Caco-2 Cells and Ex Vivo Human Serum” (Nutrients, 2018).
No end group written: not given here.

Assays:
[1] = cited from earlier work
intestinal Caco-2 cells = conditions: cited from earlier work
Description: Considered all of these aspects, using live intestinal Caco-2 cells, experiments were performed to investigate in detail the ability of Lup1 and Soy1 to inhibit DPP-IV activity, in the presence of BB proteolytic activity.

[2] = biological target: T1, circulating DPP-IV in human serum (Homo sapiens, UniProt P27487); experiment: Ex vivo circulating DPP-IV activity assay in human serum (Gly-Pro-AMC); assay type: biochemical; conditions: 24 h at 37 °C, 50 µM Gly-Pro-AMC final, three experiments in triplicate
T1 construct: a soluble form of DPP-IV lacking the cytoplasmic and transmembrane domains is present in plasma and other body fluids; from tissue; host or cells: human serum from a healthy volunteer
Description: Human serum samples prepared from freshly collected venous blood from a healthy volunteer were aliquoted 40 µL/well in black 96-well plates and 10 µL of each inhibitor were added for 24 h at 37 °C. […] Subsequently, 50 µL of 100 µM Gly-Pro-AMC was added to each well to achieve a final substrate concentration of 50 µM.

[3] = biological target: T2, DPP-IV (in situ, human intestinal Caco-2 cells) (Homo sapiens, UniProt P27487); experiment: In situ DPP-IV activity assay on 2-, 4- and 6-day Caco-2 cells (Gly-Pro-AMC); conditions: for reduction of in situ DPP-IV activity vs control: 2-day Caco-2 cells, 100 µM peptide, 1 h pre-incubation, 50 µM Gly-Pro-AMC, 10 min, three experiments in triplicate
Description: (§1) Caco-2 cells, obtained from INSERM (Paris, France), were routinely sub-cultured at 50% density [22] and maintained at 37 °C in a 90% air/10% CO2 atmosphere in DMEM containing 25 mM of glucose, 3.7 g/L of NaHCO3, 4 mM of stable L-glutamine, 1% nonessential amino acids, 100 U/L of penicillin, and 100 µg/L of streptomycin (complete medium), supplemented with 10% heat-inactivated fetal bovine serum (FBS; Hyclone Laboratories, Logan, UT, USA).
(§2) The medium was regularly changed three times a week. Caco-2 cells DPP-IV activity was assayed on days 2, 4, and 6 from seeding.

[4] = biological target: T2, DPP-IV (in situ, human intestinal Caco-2 cells)
Description: as §1, §2

T2 sequence (P27487 whole entry): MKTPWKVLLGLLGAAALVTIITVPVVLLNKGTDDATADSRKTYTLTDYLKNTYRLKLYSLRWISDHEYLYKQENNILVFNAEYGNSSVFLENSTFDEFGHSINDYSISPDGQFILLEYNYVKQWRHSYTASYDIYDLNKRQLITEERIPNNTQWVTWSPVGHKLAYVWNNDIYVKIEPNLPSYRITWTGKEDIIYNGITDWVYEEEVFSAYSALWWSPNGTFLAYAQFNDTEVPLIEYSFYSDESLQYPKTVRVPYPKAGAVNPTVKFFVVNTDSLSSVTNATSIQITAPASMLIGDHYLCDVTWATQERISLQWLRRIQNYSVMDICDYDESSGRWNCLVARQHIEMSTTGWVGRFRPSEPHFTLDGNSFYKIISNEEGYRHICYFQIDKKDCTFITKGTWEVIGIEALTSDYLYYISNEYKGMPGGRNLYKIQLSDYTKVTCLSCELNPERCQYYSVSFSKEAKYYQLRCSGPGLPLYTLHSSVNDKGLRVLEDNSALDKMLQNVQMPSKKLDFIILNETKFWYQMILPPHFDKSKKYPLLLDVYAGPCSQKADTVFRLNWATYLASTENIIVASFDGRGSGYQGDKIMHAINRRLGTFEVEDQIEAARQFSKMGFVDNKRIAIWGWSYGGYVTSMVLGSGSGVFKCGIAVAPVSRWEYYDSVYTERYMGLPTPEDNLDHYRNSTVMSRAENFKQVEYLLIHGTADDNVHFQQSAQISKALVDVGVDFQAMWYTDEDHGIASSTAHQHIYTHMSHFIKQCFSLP
T1 sequence (P27487 39-766 limits assumed): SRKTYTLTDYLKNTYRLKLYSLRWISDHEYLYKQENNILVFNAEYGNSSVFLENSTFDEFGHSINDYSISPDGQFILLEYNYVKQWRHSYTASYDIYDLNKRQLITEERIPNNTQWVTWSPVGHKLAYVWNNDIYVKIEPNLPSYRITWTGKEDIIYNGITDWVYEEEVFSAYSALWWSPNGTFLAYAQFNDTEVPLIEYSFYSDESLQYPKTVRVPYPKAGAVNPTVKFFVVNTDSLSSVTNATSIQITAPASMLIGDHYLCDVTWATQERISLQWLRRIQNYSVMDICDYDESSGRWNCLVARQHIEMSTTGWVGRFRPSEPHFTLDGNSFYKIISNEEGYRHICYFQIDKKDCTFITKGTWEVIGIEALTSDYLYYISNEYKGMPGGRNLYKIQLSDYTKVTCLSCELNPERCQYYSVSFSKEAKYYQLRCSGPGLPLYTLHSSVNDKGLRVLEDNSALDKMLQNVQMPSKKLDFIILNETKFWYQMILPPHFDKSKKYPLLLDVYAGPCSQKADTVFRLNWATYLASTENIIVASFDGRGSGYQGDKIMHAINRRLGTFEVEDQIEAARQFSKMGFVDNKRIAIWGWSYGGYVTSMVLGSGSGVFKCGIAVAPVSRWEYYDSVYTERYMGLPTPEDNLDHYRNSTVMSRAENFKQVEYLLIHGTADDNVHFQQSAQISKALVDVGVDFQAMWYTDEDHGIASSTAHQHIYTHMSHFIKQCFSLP

Row | Molecule | absorption in vivo (in words) [1] | stability to apical proteases (in words) (intestinal Caco-2 cells; differentiated Caco-2 cells, apical proteases, after 4 h of incubation) | absorption by Caco-2 cells (in words) (intestinal Caco-2 cells; differentiated intestinal Caco-2 cells) | decrease of circulating DPP-IV activity vs control ([2]; 100 µM peptide) | decrease of circulating DPP-IV activity vs control ([2]; 300 µM peptide) | IC50 [3] | in situ IC50 compared with in vitro IC50 (in words) ([3]; 2-day Caco-2 IC50 vs in vitro purified enzyme IC50) | reduction of in situ DPP-IV activity vs control [3] | breakdown fragments formed (intestinal Caco-2 cells; Caco-2 cells, already after 2 h of incubation) | susceptibility to intestinal endopeptidases (in words) (intestinal Caco-2 cells; Caco-2 cells) | in situ IC50 compared with in vitro IC50 [4]
1 | N[C@@H](CC(=O)N1CCn2c(nnc2C(F)(F)F)C1)Cc1cc(F)c(F)cc1F [sitagliptin, Sitagliptin] | rapidly absorbed |  |  |  |  |  |  |  |  |  | 
2 | LTFPGSAED [Lup1] |  | not degraded | absorbed intact | 18.1% | 24.7% | 207 µM | in agreement with that obtained with the in vitro assay | 50% |  |  | 
3 | IAVPTGVA [Soy1] |  |  |  | 27.7% | 35.0% | 223 µM |  | 50% | IAVPT and AVPTGVA | susceptible to the action of intestinal endopeptidases | 2 fold
